The DC50 is the midpoint of the concentration-degradation curve.

The assay deals with KAT2A (Homo sapiens, UniProt Q92830). The assay can be described thus: KAT2A degradation, Western Blot (Jess), MOLM-13 cells. It is filed as cell-based. More on the design: degrader, Western blot. The following applies: MOLM-13 cells, KAT2A, 24 h, Western Blot, vs DMSO; read-out: KAT2A MOLM-13 DC50. The method, then: MOLM-13 cells or NCI-H1048 cells were used for Western Blot analysis of KAT2A degradation. KAT2B degradation can be measured in a similar manner with NCI-H1048 cells.
KAT2A, sequence (Q92830 whole entry): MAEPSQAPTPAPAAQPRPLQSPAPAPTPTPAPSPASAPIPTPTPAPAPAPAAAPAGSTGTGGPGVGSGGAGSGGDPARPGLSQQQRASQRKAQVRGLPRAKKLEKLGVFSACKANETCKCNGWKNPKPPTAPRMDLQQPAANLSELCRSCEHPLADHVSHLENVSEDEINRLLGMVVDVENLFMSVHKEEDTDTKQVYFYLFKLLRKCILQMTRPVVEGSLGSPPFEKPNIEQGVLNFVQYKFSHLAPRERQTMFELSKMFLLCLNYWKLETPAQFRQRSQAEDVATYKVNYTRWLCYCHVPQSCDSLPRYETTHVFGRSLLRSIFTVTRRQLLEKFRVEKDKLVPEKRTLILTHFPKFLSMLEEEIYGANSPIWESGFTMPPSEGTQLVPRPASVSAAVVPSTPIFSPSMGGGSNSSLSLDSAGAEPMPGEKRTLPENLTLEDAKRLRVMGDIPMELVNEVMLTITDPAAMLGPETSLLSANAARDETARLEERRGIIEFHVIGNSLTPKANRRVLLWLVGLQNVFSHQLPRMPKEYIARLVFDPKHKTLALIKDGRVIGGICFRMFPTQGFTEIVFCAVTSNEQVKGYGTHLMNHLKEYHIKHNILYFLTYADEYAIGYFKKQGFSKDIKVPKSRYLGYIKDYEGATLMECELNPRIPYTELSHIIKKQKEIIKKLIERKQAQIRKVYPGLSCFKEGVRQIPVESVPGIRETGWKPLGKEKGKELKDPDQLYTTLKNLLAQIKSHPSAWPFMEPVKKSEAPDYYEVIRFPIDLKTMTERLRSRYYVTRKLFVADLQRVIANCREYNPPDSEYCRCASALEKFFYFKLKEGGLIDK
MOLM-13 cells were maintained at 37° C. in 5% CO2 and 90% humidity in RPMI 1640 supplemented with 20% fetal bovine serum (FBS) and 1× penicillin/streptomycin. Cells were plated in full media at 1-2 million cells/2 mL in a 6-well tissue culture treated plate with or without compounds for 24 h at 37° C. in 5% CO2.
MOLM-13 cells or NCI-H1048 cells were washed with PBS, then lysed with RIPA buffer containing 1×protease and phosphatase inhibitors (SantaCruz Biotechnologies Cat #sc-24948A). Protein was isolated by centrifugation at 12,000×g for 10 minutes at 4° C. and supernatant was collected. Protein was quantified via Bradford assay. Samples were diluted to 4 μg lysate in 16 μL RIPA buffer and then 4 μL of Jess Sample Buffer. Samples were heated at 95° C. for 5 minutes. Samples were loaded onto 12-230 kDa Jess™ Separation Module, 8×25 capillary cartridges (SM-W004, Biotechne). Antibodies loaded were: Primary antibody for KAT2A (GCN5L2 (C26A10) Rabbit mAb (3305, CST)) and for KAT2B (PCAF (C14G9)) Rabbit mAb (3378, CST) at 1:1000 and Anti-Rabbit Detection Module for Jess™ (Cat No #DM-001, Biotechne). Signal was detected by chemiluminescence.
DC50 values were determined from percent reduction of protein as compared to the DMSO control.

A value given as a limit tells only on which side of the number the result lay.

As for `CN1C[C@H](Nc2cnn(C)c(=O)c2Br)C[C@H](c2ccc(C(=O)OCC3CCN(c4cccc5c4C(=O)N(C4CCC(=O)NC4=O)C5=O)CC3)cc2)C1` (stereo partly shown) [Compound 32], the DC50 was 1 to 30 nM.

As to `CN1C[C@H](Nc2cnn(C)c(=O)c2Br)C[C@H](c2ccc(C(=O)N(C)Cc3ccc(Oc4cccc5c4C(=O)N(C4CCC(=O)NC4=O)C5=O)cc3)cc2)C1` (stereo partly shown) [Compound 33], the DC50 is < 1 nM.

On to `CN1C[C@H](Nc2cnn(C)c(=O)c2Br)C[C@H](c2ccc(C(=O)N(C)c3cccc(Oc4ccc5c(c4)C(=O)N(C4CCC(=O)NC4=O)C5=O)c3)cc2)C1` (stereo partly shown) [Compound 34], for which the DC50 is 1 to 30 nM.

In the case of `CN1C[C@H](Nc2cnn(C)c(=O)c2Br)C[C@H](c2ccc(CNCC3CCC(COc4cccc5c4C(=O)N(C4CCC(=O)NC4=O)C5=O)CC3)cc2)C1` (stereo partly shown) [Compound 35], the DC50 is < 1 nM.

Turning to `CN1C[C@H](Nc2cnn(C)c(=O)c2Br)C[C@H](c2ccc(CN3CCC(Oc4cccc5c4C(=O)N(C4CCC(=O)NC4=O)C5=O)CC3)cc2)C1` (stereo partly shown) [Compound 36], the DC50 is 1 to 30 nM.

Take `CN1C[C@H](Nc2cnn(C)c(=O)c2Br)C[C@H](c2ccc(CN3CC4(C3)CN(c3ccc5c(c3)CN(C3CCC(=O)NC3=O)C5=O)C4)cc2)C1` (stereo partly shown) [Compound 37]: the DC50 was < 1 nM.

As for `CN1C[C@H](Nc2cnn(C)c(=O)c2Br)C[C@H](c2ccc(COc3cccc4c3C(=O)N(C3CCC(=O)NC3=O)C4=O)cc2)C1` (stereo partly shown) [Compound 38], the DC50 lay in the range of 1 to 30 nM.

Take `CN1C[C@H](Nc2cnn(C)c(=O)c2Br)C[C@H](c2ccc(C(=O)NCCCCCCOc3cccc4c3C(=O)N(C3CCC(=O)NC3=O)C4=O)cc2)C1` (stereo partly shown) [Compound 41]: the DC50 was < 1 nM.

In the case of `CN1C[C@H](Nc2cnn(C)c(=O)c2Br)C[C@H](c2ccc(C(=O)NCCCCCCCCOc3cccc4c3C(=O)N(C3CCC(=O)NC3=O)C4=O)cc2)C1` (stereo partly shown) [Compound 42], the 50% degradation concentration (DC50) was in the range of 1 to 30 nM.

Consider `CN1C[C@H](Nc2cnn(C)c(=O)c2Br)C[C@H](c2ccc(C(=O)NCCOCCn3cc(COCCOc4cccc5c4C(=O)N(C4CCC(=O)NC4=O)C5=O)nn3)cc2)C1` (stereo partly shown) [Compound 43], for which the DC50 is > 30 nM.

Take `CN1C[C@H](Nc2cnn(C)c(=O)c2Br)C[C@H](c2ccc(C(=O)N(C)CCOc3cccc4c3C(=O)N(C3CCC(=O)NC3=O)C4=O)cc2)C1` (stereo partly shown) [Compound 44]: the DC50 was 1 to 30 nM.

`CN1C[C@H](Nc2cnn(C)c(=O)c2Br)C[C@H](c2ccc(C(=O)N3CCC(COc4cccc5c4C(=O)N(C4CCC(=O)NC4=O)C5=O)CC3)cc2)C1` (stereo partly shown) [Compound 45]: the DC50 is < 1 nM.

Turning to `CN1C[C@H](Nc2cnn(C)c(=O)c2Cl)C[C@H](c2ccc(C(=O)N3CCN(Cc4ccc(C(=O)Nc5cccc6c5C(=O)N(C5CCC(=O)NC5=O)C6=O)cc4)CC3)cc2)C1` (stereo partly shown) [Compound 46], the DC50 fell in the range of 1 to 30 nM.

`CN1C[C@H](Nc2nn(C)c(=O)c3cccnc23)C[C@H](c2ccc(C(=O)N3CCN(Cc4ccc(C(=O)Nc5cccc6c5C(=O)N(C5CCC(=O)NC5=O)C6=O)cc4)CC3)cc2)C1` (stereo partly shown) [Compound 47]: the DC50 is > 30 nM.

With `CN(Cc1ccc(Oc2cccc3c2C(=O)N(C2CCC(=O)NC2=O)C3=O)cc1)Cc1ccc([C@H]2C[C@@H](Nc3cnn(C)c(=O)c3Br)CN(C)C2)cc1` (stereo partly shown) [Compound 48], the DC50 was < 1 nM.

Turning to `CN1C[C@H](Nc2cnn(C)c(=O)c2Br)C[C@H](c2ccc(C(=O)N3CCN(Cc4ccc(Oc5cccc6c5C(=O)N(C5CCC(=O)NC5=O)C6=O)cc4)CC3)cc2)C1` (stereo partly shown) [Compound 49], the DC50 is < 1 nM.

As for `CN1C[C@H](Nc2cnn(C)c(=O)c2Br)C[C@H](c2ccc(CN3CCN(Cc4ccc(Oc5cccc6c5C(=O)N(C5CCC(=O)NC5=O)C6=O)cc4)CC3)cc2)C1` (stereo partly shown) [Compound 50], the DC50 is < 1 nM.

On to `CN1C[C@H](Nc2cnn(C)c(=O)c2Br)C[C@H](c2ccc(CN3CC4(C3)CN(c3cccc5c3C(=O)N(C3CCC(=O)NC3=O)C5=O)C4)cc2)C1` (stereo partly shown) [Compound 51], for which the DC50 was > 30 nM.

As for `CN1C[C@H](Nc2cnn(C)c(=O)c2Br)C[C@H](c2ccc(C(=O)N3CCN(Cc4cccc5c4C(=O)N(C4CCC(=O)NC4=O)C5=O)CC3)cc2)C1` (stereo partly shown) [Compound 52], the DC50 was < 1 nM.

For the compound `CN1C[C@H](Nc2cnn(C)c(=O)c2Br)C[C@H](c2ccc(CN(C)c3ccc(Oc4cccc5c4C(=O)N(C4CCC(=O)NC4=O)C5=O)cc3)cc2)C1` (stereo partly shown) [Compound 53], the DC50 fell in the range of 1 to 30 nM.

On to `CN1C[C@H](Nc2cnn(C)c(=O)c2Br)C[C@H](c2ccc(C(=O)N3CCC(C#CCOc4ccc5c(c4)C(=O)N(C4CCC(=O)NC4=O)C5=O)CC3)cc2)C1` (stereo partly shown) [Compound 54], for which the DC50 was < 1 nM.

Regarding `CN1C[C@H](Nc2cnn(C)c(=O)c2Br)C[C@H](c2ccc(C(=O)N(C)Cc3ccc(COc4cccc5c4C(=O)N(C4CCC(=O)NC4=O)C5=O)cc3)cc2)C1` (stereo partly shown) [Compound 55], the DC50 was < 1 nM.

`CN1C[C@H](Nc2nn(C)c(=O)n(C)c2=O)C[C@H](c2ccc(C(=O)N3CCN(Cc4ccc(C(=O)Nc5cccc6c5C(=O)N(C5CCC(=O)NC5=O)C6=O)cc4)CC3)cc2)C1` (stereo partly shown) [Compound 56]: the DC50 was > 30 nM.

Regarding `CN1C[C@H](Nc2cnn(C)c(=O)c2Br)C[C@H](c2ccc(C(=O)N3CCN(Cc4cccc(C(=O)Nc5cccc6c5C(=O)N(C5CCC(=O)NC5=O)C6=O)c4)CC3)cc2)C1` (stereo partly shown) [Compound 57], the DC50 was in the range of 1 to 30 nM.

With `CN1C[C@H](Nc2cnn(C)c(=O)c2Br)C[C@H](c2ccc(CN3CCN(Cc4cccc5c4C(=O)N(C4CCC(=O)NC4=O)C5=O)CC3)cc2)C1` (stereo partly shown) [Compound 58], the DC50 is 1 to 30 nM.

Regarding `CN1C[C@H](Nc2cnn(C)c(=O)c2Br)C[C@H](c2ccc(C(=O)N3CC4(CN(Cc5cccc6c5C(=O)N(C5CCC(=O)NC5=O)C6=O)C4)C3)cc2)C1` (stereo partly shown) [Compound 59], the DC50 lay in the range of 1 to 30 nM.

For `CN1C[C@H](Nc2cnn(C)c(=O)c2Br)C[C@H](c2ccc(C(=O)N3CC4(CN(Cc5ccc6c(c5)C(=O)N(C5CCC(=O)NC5=O)C6=O)C4)C3)cc2)C1` (stereo partly shown) [Compound 60], the DC50 lay within 1 to 30 nM.

For `CN1C[C@H](Nc2cnn(C)c(=O)c2Br)C[C@H](c2ccc(C(=O)N3CCN(Cc4ccc(C(=O)Nc5ccc6c(c5)C(=O)N(C5CCC(=O)NC5=O)C6=O)cc4)CC3)cc2)C1` (stereo partly shown) [Compound 61], the DC50 was in the range of 1 to 30 nM.

As for `CN1C[C@H](Nc2cnn(C)c(=O)c2Br)C[C@H](c2ccc(C(=O)N3CC(Oc4cccc5c4C(=O)N(C4CCC(=O)NC4=O)C5=O)C3)cc2)C1` (stereo partly shown) [Compound 62], the DC50 was in the range of 1 to 30 nM.

Consider `CN1C[C@H](Nc2cnn(C)c(=O)c2Br)C[C@H](c2ccc(C(=O)N3CCC(c4ccc5c(c4)CN(C4CCC(=O)NC4=O)C5=O)CC3)cc2)C1` (stereo partly shown) [Compound 63], for which the DC50 is < 1 nM.

On to `CN1C[C@H](Nc2cnn(C)c(=O)c2Br)C[C@H](c2ccc(CN3CC(Oc4cccc5c4C(=O)N(C4CCC(=O)NC4=O)C5=O)C3)cc2)C1` (stereo partly shown) [Compound 64], for which the DC50 lay within 1 to 30 nM.

Regarding `CN1C[C@H](Nc2cnn(C)c(=O)c2Br)C[C@H](c2ccc(COc3ccc4c(c3)CN(C3CCC(=O)NC3=O)C4=O)cc2)C1` (stereo partly shown) [Compound 65], the DC50 was > 30 nM.

Take `CN1C[C@H](Nc2cnn(C)c(=O)c2Br)C[C@H](c2ccc(CN3CCC(c4ccc5c(c4)CN(C4CCC(=O)NC4=O)C5=O)CC3)cc2)C1` (stereo partly shown) [Compound 66]: the DC50 was < 1 nM.

Turning to `CN1C[C@H](Nc2ccn(C)c(=O)c2Br)C[C@H](c2ccc(CN3CCC(c4ccc5c(c4)CN(C4CCC(=O)NC4=O)C5=O)CC3)cc2)C1` (stereo partly shown) [Compound 68], the DC50 is < 1 nM.

For `CN1C[C@H](Nc2cnn(C)c(=O)c2Br)C[C@H](c2ccc(CN3CCN(c4ccc(C5CCC(=O)NC5=O)cc4)CC3)cc2)C1` (stereo partly shown) [Compound 69], the DC50 is < 1 nM.

As for `CN1C[C@H](Nc2cnn(C)c(=O)c2Cl)C[C@H](c2ccc(CN3CCC(c4ccc5c(c4)CN(C4CCC(=O)NC4=O)C5=O)CC3)cc2)C1` (stereo partly shown) [Compound 70], the 50% degradation concentration (DC50) is < 1 nM.

As to `CN1C[C@H](Nc2cnn(C)c(=O)c2Br)C[C@H](c2ccc(C(=O)N3CCN(Cc4ccc5c(c4)CN(C4CCC(=O)NC4=O)C5=O)CC3)cc2)C1` (stereo partly shown) [Compound 71], the DC50 is < 1 nM.

For `CN1C[C@H](Nc2cnn(C)c(=O)c2Br)C[C@H](c2ccc(C(=O)N3CCC(c4ccc5c(c4)CN(C4CCC(=O)NC4=O)C5=O)CC3)cc2)C1` (stereo partly shown) [Compound 73], the DC50 lay within 1 to 30 nM.

`CN1C[C@H](Nc2cnn(C)c(=O)c2Br)C[C@H](c2ccc(CN3CCN(Cc4ccc5c(c4)CN(C4CCC(=O)NC4=O)C5=O)CC3)cc2)C1` (stereo partly shown) [Compound 74]: the DC50 was < 1 nM.

On to `CN1C[C@H](Nc2cnn(C)c(=O)c2Cl)C[C@H](c2ccc(CN3CCN(Cc4ccc5c(c4)CN(C4CCC(=O)NC4=O)C5=O)CC3)cc2)C1` (stereo partly shown) [Compound 75], for which the DC50 lay in the range of 1 to 30 nM.

With `CN1C[C@H](Nc2cnn(C)c(=O)c2Cl)C[C@H](c2ccc(C(=O)N3CCN(Cc4ccc5c(c4)CN(C4CCC(=O)NC4=O)C5=O)CC3)cc2)C1` (stereo partly shown) [Compound 76], the DC50 fell in the range of 1 to 30 nM.

As for `CN1C[C@H](Nc2cnn(C)c(=O)c2Cl)C[C@H](c2ccc(C(=O)N3CCC(c4ccc5c(c4)CN(C4CCC(=O)NC4=O)C5=O)CC3)cc2)C1` (stereo partly shown) [Compound 77], the DC50 lay in the range of 1 to 30 nM.

For `CN1C[C@H](Nc2cnn(C)c(=O)c2Br)C[C@H](c2ccc(CN3CCN(c4ccc(N5CCC(=O)NC5=O)cc4)CC3)cc2)C1` [Compound 78], the DC50 is > 30 nM.

(Values after patent US20260306640A1, “TECHNOLOGIES TARGETING CELL STATES” (Auron Therapeutics, Inc., priority 2023, published 2026).)
